This test deals with rabbit skeletal myofibrils (approximately 90% fast fibers). Put plainly: Activation of fast skeletal myofibrils (PUMA coupled-enzyme ATPase assay, AC1.4). Particulars: Table 2; concentration at which the compound increased enzymatic activity by 40%; calcium at pCa25. Format: biochemical.

For the molecule `COc1ccc(CCNc2nc(Cc3ccc(F)cc3)ns2)cc1` [{3-[(4-fluorophenyl)methyl](1,2,4-thiadiazol-5-yl)}[2-(4-methoxyphenyl)ethyl]amine], the “Mean AC1.4” value is recorded as “D (D=>20 uM)”.

Take `Cc1csc(CCNc2nc(Cc3ccc(F)cc3)ns2)n1` [{3-[(4-fluorophenyl)methyl](1,2,4-thiadiazol-5-yl)}[2-(4-methyl(1,3-thiazol-2-yl))ethyl]amine]: the “Mean AC1.4” value is “D (D=>20 uM)”.

As to `CC(=O)OCC(=O)NCCCc1nsc(NCC(C)(C)c2ccc(F)cc2)n1` [{N-[3-(5-{[2-(4-fluorophenyl)-2-methylpropyl]amino}-1,2,4-thiadiazol-3-yl)propyl]carbamoyl}methyl acetate], the “Mean AC1.4” value is reported as “C (C=10-20 uM)”.

Turning to `Fc1cccnc1C1(CNc2nc(-c3ccccc3)ns2)CCC1` [{[(3-fluoro(2-pyridyl))cyclobutyl]methyl}(3-phenyl(1,2,4-thiadiazol-5-yl))amine], the “Mean AC1.4” value is “B (B=1-10 uM)”.

Source of the values: patent US9278962B2 (Cytokinetics, Inc., priority 2011, dated 2016).
